Test results published in patent publication US10251854B2, “S-(carboxymethyl)-cysteine pharmaceutical compound and preparation method and use thereof” (Guangzhou Baiyunshan Pharmaceutical Holdings Co., Ltd. …, priority 2013, dated 2019).

Key:
Type in all cases: in vivo
Conditions in all cases: x ± SD
rat COPD model [1] = assay: Rat COPD model: oxidization indexes (LPO, MDA)
Description: (§1) 1.1 Preparation of Rat COPD Models
(§2) A method of establishing a rat COPD model by fumigation plus endotoxin lipopolysaccharide (LPS) endotracheal drop, which is commonly used at home and abroad at present was adopted. The period is 3 months (90 days). Specific method: on the 1st, the 15th, the 29th, the 43rd, the 57th, the 71st and the 85th days of the test, the rats were anesthetized with ethylether, the roots of tongues of the rats were pulled out, and LPS (200 ug/200 ul) was dripped through tracheas by bend gavage needle heads. The rats of the normal group were dripped with physiological saline of equal amount by the same method, and weren't fumigated. The rats of the other five groups were fumigated in a self-made fumigation bin. One side of the fumigation bin was externally connected with a negative pressure pump, and the top thereof was connected with a port for inserting cigarettes. With the negative press pump turned on, the cigarettes were lit, and the smoke of the cigarettes was absorbed into the fumigation bin. In order to prevent the animals from death caused by anoxia, 12 cigarettes were lit every time, and the lid of the fumigation bin was opened 20 min after fumigation for letting in fresh air. The operation was performed 1 h/3 times/day, with the LPS (200 ug/200 ul) being dripped through the tracheas by bend gavage needle heads.
(§3) 1.2 Pharmacological Intervention
(§4) The test was 90 days long. The pharmacological intervention was started from the 15th day, the rats of the positive group were perfused with carbocisteine, the rats of the low, medium and high test groups were perfused with different doses of test medicines, and the rats of the model group and the normal group were perfused with physiological saline of equal amount.
(§5) 1.3 Indexes Determination
(§6) Blood was taken from the orbit of each rat on the second day after the test was over, serum was separated, a complete stomach was cut and washed, lung tissue was preserved, the stomach and the right upper lung were left for pathobiology test, after the rest of the lung was subjected to lung tissue homogenate, the indexes of oxidization and antioxidation, the contents of lipid peroxide (LPO), malondialdehyde (MDA) and reduced glutathione (GSH), the activity of superoxide dismutase (SOD) and the concentration of inflammatory medium TNF-α, IL-8 and IL-6 were detected.

rat COPD model [2] = assay: Rat COPD model: antioxidation indexes (GSH, SOD)
Description: as §1, §2, §3, §4, §5, §6

rat COPD model [3] = assay: Rat COPD model: inflammation indexes (TNF-α, IL-8, IL-6)
Description: as §1, §2, §3, §4, §5, §6

N.N.N[C@H](CSCC(=O)O)C(=O)O.O [D-ammonium, S-(carboxymethyl)-D-cysteine ammonium salt monohydrate]
LPO Lung tissue (rat COPD model [1]; high dose group): 17.33 ± 4.07 nmol/mL | LPO Serum (rat COPD model [1]; high dose group): 4.97 ± 1.74 nmol/mL | MDA Lung tissue (rat COPD model [1]; high dose group): 4.35 ± 0.63 µmol/mL | MDA Serum (rat COPD model [1]; high dose group): 7.05 ± 1.59 µmol/mL | LPO Lung tissue (rat COPD model [1]; low dose group): 20.35 ± 3.70 nmol/mL | LPO Serum (rat COPD model [1]; low dose group): 6.07 ± 1.55 nmol/mL | MDA Lung tissue (rat COPD model [1]; low dose group): 5.12 ± 1.11 µmol/mL | MDA Serum (rat COPD model [1]; low dose group): 8.28 ± 2.09 µmol/mL | LPO Lung tissue (rat COPD model [1]; medium dose group): 18.38 ± 2.86 nmol/mL | LPO Serum (rat COPD model [1]; medium dose group): 5.20 ± 0.96 nmol/mL | MDA Lung tissue (rat COPD model [1]; medium dose group): 4.90 ± 0.43 µmol/mL | MDA Serum (rat COPD model [1]; medium dose group): 7.75 ± 1.93 µmol/mL | GSH Lung tissue (rat COPD model [2]; high dose group): 120.13 ± 25.76 µmol/L | GSH Serum (rat COPD model [2]; high dose group): 158.76 ± 29.50 µmol/L | SOD Lung tissue (rat COPD model [2]; high dose group): 70.51 ± 20.90 U/mL | SOD Serum (rat COPD model [2]; high dose group): 98.28 ± 19.15 U/mL | GSH Lung tissue (rat COPD model [2]; low dose group): 94.54 ± 17.50 µmol/L | GSH Serum (rat COPD model [2]; low dose group): 120.16 ± 17.05 µmol/L | SOD Lung tissue (rat COPD model [2]; low dose group): 52.17 ± 16.44 U/mL | SOD Serum (rat COPD model [2]; low dose group): 72.30 ± 12.66 U/mL | GSH Lung tissue (rat COPD model [2]; medium dose group): 109.68 ± 24.63 µmol/L | GSH Serum (rat COPD model [2]; medium dose group): 131.33 ± 24.17 µmol/L | SOD Lung tissue (rat COPD model [2]; medium dose group): 60.31 ± 14.12 U/mL | SOD Serum (rat COPD model [2]; medium dose group): 88.85 ± 17.47 U/mL | IL-6 Lung tissue (rat COPD model [3]; high dose group): 13.83 ± 6.19 pg/mL | IL-6 Serum (rat COPD model [3]; high dose group): 7.93 ± 3.10 pg/mL | IL-8 Lung tissue (rat COPD model [3]; high dose group): 11.44 ± 1.64 pg/mL | IL-8 Serum (rat COPD model [3]; high dose group): 7.38 ± 1.54 pg/mL | TNF-α Lung tissue (rat COPD model [3]; high dose group): 21.33 ± 8.57 pg/mL | TNF-α Serum (rat COPD model [3]; high dose group): 17.19 ± 4.05 pg/mL | IL-6 Lung tissue (rat COPD model [3]; low dose group): 16.36 ± 4.78 pg/mL | IL-6 Serum (rat COPD model [3]; low dose group): 10.76 ± 2.90 pg/mL | IL-8 Lung tissue (rat COPD model [3]; low dose group): 13.09 ± 2.98 pg/mL | IL-8 Serum (rat COPD model [3]; low dose group): 8.56 ± 2.79 pg/mL | TNF-α Lung tissue (rat COPD model [3]; low dose group): 28.26 ± 12.06 pg/mL | TNF-α Serum (rat COPD model [3]; low dose group): 21.12 ± 4.11 pg/mL | IL-6 Lung tissue (rat COPD model [3]; medium dose group): 15.61 ± 4.40 pg/mL | IL-6 Serum (rat COPD model [3]; medium dose group): 9.09 ± 3.23 pg/mL | IL-8 Lung tissue (rat COPD model [3]; medium dose group): 11.90 ± 1.77 pg/mL | IL-8 Serum (rat COPD model [3]; medium dose group): 8.05 ± 1.72 pg/mL | TNF-α Lung tissue (rat COPD model [3]; medium dose group): 25.02 ± 10.89 pg/mL | TNF-α Serum (rat COPD model [3]; medium dose group): 19.86 ± 3.58 pg/mL

S-(carboxymethyl)-D-cysteine arginine salt monohydrate [D-arginine]
LPO Lung tissue (rat COPD model [1]; high dose group): 18.74 ± 3.47 nmol/mL | LPO Serum (rat COPD model [1]; high dose group): 5.26 ± 0.88 nmol/mL | MDA Lung tissue (rat COPD model [1]; high dose group): 4.58 ± 0.66 µmol/mL | LPO Lung tissue (rat COPD model [1]; low dose group): 21.98 ± 2.16 nmol/mL | LPO Serum (rat COPD model [1]; low dose group): 6.32 ± 1.34 nmol/mL | MDA Lung tissue (rat COPD model [1]; low dose group): 5.21 ± 0.72 µmol/mL | MDA Serum (rat COPD model [1]; low dose group): 8.66 ± 2.20 µmol/mL | LPO Lung tissue (rat COPD model [1]; medium dose group): 20.62 ± 3.65 nmol/mL | LPO Serum (rat COPD model [1]; medium dose group): 5.80 ± 1.07 nmol/mL | MDA Lung tissue (rat COPD model [1]; medium dose group): 5.01 ± 0.41 µmol/mL | GSH Lung tissue (rat COPD model [2]; high dose group): 114.54 ± 20.57 µmol/L | GSH Serum (rat COPD model [2]; high dose group): 144.17 ± 27.40 µmol/L | SOD Lung tissue (rat COPD model [2]; high dose group): 62.24 ± 16.47 U/mL | SOD Serum (rat COPD model [2]; high dose group): 92.32 ± 20.65 U/mL | GSH Lung tissue (rat COPD model [2]; low dose group): 92.23 ± 13.38 µmol/L | SOD Lung tissue (rat COPD model [2]; low dose group): 46.86 ± 19.25 U/mL | SOD Serum (rat COPD model [2]; low dose group): 74.53 ± 8.70 U/mL | GSH Lung tissue (rat COPD model [2]; medium dose group): 107.77 ± 18.26 µmol/L | SOD Lung tissue (rat COPD model [2]; medium dose group): 54.4 ± 12.18 U/mL | SOD Serum (rat COPD model [2]; medium dose group): 83.74 ± 15.27 U/mL | IL-6 Lung tissue (rat COPD model [3]; high dose group): 13.69 ± 4.33 pg/mL | IL-6 Serum (rat COPD model [3]; high dose group): 8.70 ± 2.35 pg/mL | IL-8 Lung tissue (rat COPD model [3]; high dose group): 10.82 ± 2.59 pg/mL | IL-8 Serum (rat COPD model [3]; high dose group): 7.74 ± 1.28 pg/mL | TNF-α Lung tissue (rat COPD model [3]; high dose group): 24.40 ± 6.09 pg/mL | TNF-α Serum (rat COPD model [3]; high dose group): 19.73 ± 6.08 g* pg/mL | IL-6 Lung tissue (rat COPD model [3]; low dose group): 17.03 ± 7.27 pg/mL | IL-6 Serum (rat COPD model [3]; low dose group): 11.07 ± 2.60 pg/mL | IL-8 Lung tissue (rat COPD model [3]; low dose group): 12.69 ± 2.33 pg/mL | IL-8 Serum (rat COPD model [3]; low dose group): 9.70 ± 1.35 pg/mL | TNF-α Lung tissue (rat COPD model [3]; low dose group): 30.10 ± 9.44 pg/mL | TNF-α Serum (rat COPD model [3]; low dose group): 23.12 ± 4.20 pg/mL | IL-6 Lung tissue (rat COPD model [3]; medium dose group): 15.44 ± 5.64 pg/mL | IL-6 Serum (rat COPD model [3]; medium dose group): 10.38 ± 3.54 pg/mL | IL-8 Lung tissue (rat COPD model [3]; medium dose group): 12.01 ± 2.11 pg/mL | IL-8 Serum (rat COPD model [3]; medium dose group): 8.26 ± 2.67 pg/mL | TNF-α Lung tissue (rat COPD model [3]; medium dose group): 28.28 ± 13.57 pg/mL | TNF-α Serum (rat COPD model [3]; medium dose group): 20.09 ± 5.10 pg/mL

S-(carboxymethyl)-L-cysteine arginine salt monohydrate [L-arginine]
LPO Lung tissue (rat COPD model [1]; high dose group): 16.09 ± 3.22 nmol/mL | LPO Serum (rat COPD model [1]; high dose group): 4.25 ± 0.99 nmol/mL | MDA Lung tissue (rat COPD model [1]; high dose group): 3.96 ± 0.57 µmol/mL | MDA Serum (rat COPD model [1]; high dose group): 6.79 ± 1.83 µmol/mL | LPO Lung tissue (rat COPD model [1]; low dose group): 19.66 ± 3.90 nmol/mL | LPO Serum (rat COPD model [1]; low dose group): 5.78 ± 1.65 nmol/mL | MDA Lung tissue (rat COPD model [1]; low dose group): 4.77 ± 0.72 µmol/mL | MDA Serum (rat COPD model [1]; low dose group): 8.02 ± 1.54 µmol/mL | LPO Lung tissue (rat COPD model [1]; medium dose group): 17.78 ± 2.98 nmol/mL | LPO Serum (rat COPD model [1]; medium dose group): 4.87 ± 1.90 nmol/mL | MDA Lung tissue (rat COPD model [1]; medium dose group): 4.40 ± 0.60 µmol/mL | MDA Serum (rat COPD model [1]; medium dose group): 7.34 ± 2.44 µmol/mL | GSH Lung tissue (rat COPD model [2]; high dose group): 128.45 ± 24.09 µmol/L | SOD Lung tissue (rat COPD model [2]; high dose group): 72.36 ± 14.55 U/mL | SOD Serum (rat COPD model [2]; high dose group): 116.34 ± 27.86 U/mL | GSH Lung tissue (rat COPD model [2]; low dose group): 102.45 ± 18.97 µmol/L | GSH Serum (rat COPD model [2]; low dose group): 134.21 ± 26.45 µmol/L | SOD Lung tissue (rat COPD model [2]; low dose group): 55.67 ± 13.29 U/mL | SOD Serum (rat COPD model [2]; low dose group): 82.67 ± 19.45 U/mL | GSH Lung tissue (rat COPD model [2]; medium dose group): 116.22 ± 22.73 µmol/L | GSH Serum (rat COPD model [2]; medium dose group): 159.33 ± 30.20 µmol/L | SOD Lung tissue (rat COPD model [2]; medium dose group): 65.44 ± 17.33 U/mL | SOD Serum (rat COPD model [2]; medium dose group): 93.20 ± 20.77 U/mL | IL-6 Lung tissue (rat COPD model [3]; high dose group): 12.77 ± 4.65 pg/mL | IL-6 Serum (rat COPD model [3]; high dose group): 6.69 ± 1.92 pg/mL | IL-8 Lung tissue (rat COPD model [3]; high dose group): 9.09 ± 1.89 pg/mL | IL-8 Serum (rat COPD model [3]; high dose group): 6.24 ± 1.89 pg/mL | TNF-α Lung tissue (rat COPD model [3]; high dose group): 20.36 ± 7.41 pg/mL | TNF-α Serum (rat COPD model [3]; high dose group): 15.7 ± 5.16 pg/mL | IL-6 Lung tissue (rat COPD model [3]; low dose group): 15.80 ± 6.02 pg/mL | IL-6 Serum (rat COPD model [3]; low dose group): 9.17 ± 3.08 pg/mL | IL-8 Lung tissue (rat COPD model [3]; low dose group): 11.88 ± 303 pg/mL | IL-8 Serum (rat COPD model [3]; low dose group): 8.56 ± 2.33 pg/mL | TNF-α Lung tissue (rat COPD model [3]; low dose group): 26.17 ± 8.33 pg/mL | TNF-α Serum (rat COPD model [3]; low dose group): 20.22 ± 4.77 pg/mL | IL-6 Lung tissue (rat COPD model [3]; medium dose group): 14.22 ± 5.13 pg/mL | IL-6 Serum (rat COPD model [3]; medium dose group): 7.66 ± 2.83 pg/mL | IL-8 Lung tissue (rat COPD model [3]; medium dose group): 9.98 ± 2.43 pg/mL | IL-8 Serum (rat COPD model [3]; medium dose group): 7.39 ± 2.02 pg/mL | TNF-α Lung tissue (rat COPD model [3]; medium dose group): 23.65 ± 11.21 pg/mL | TNF-α Serum (rat COPD model [3]; medium dose group): 18.6 ± 3.89 pg/mL
